Measured values published in patent US10219516B2, “Molecules having pesticidal utility, and intermediates, compositions, and processes, related thereto” (priority 2015, dated 2019).
Counter-ions that a name gives are not always drawn. Like-named read-outs stand apart in the source and are kept apart here.

What was measured:
Type in all cases: in vivo
[1] = test system: Beet Armyworm (Spodoptera exigua, LAPHEG); experiment: Bioassay on Beet Armyworm (BAW), 128-well diet tray assay
Outline: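 Second instar larvae were exposed to diet treated at 50 μg/cm^2 for five to seven days at 25° C.; mortality was averaged over eight wells.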

[2] = test system: Cabbage Looper (Trichoplusia ni, TRIPNI); experiment: Bioassay on Cabbage Looper (CL), 128-well diet tray assay; settings: Trichoplusia ni
Outline: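 Test molecule is dissolved in 90:10 acetone-water and applied at 50 μg/cm^2 onto artificial diet, then dried. One to five second-instar larvae go into each of eight wells. Trays, sealed but vented, stay at 25° C., 14:10 light-dark, five to seven days, after which mortality is averaged.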

[3] = test system: Yellow Fever Mosquito (Aedes aegypti, AEDSAE); experiment: Bioassay on Yellow Fever Mosquito (YFM), 96-well plate larval assay; settings: for YFM rating: Yellow Fever Mosquito, 96-well plate larval assay; for YFM (Biological Results, rating): Species YFM (Yellow Fever Mosquito)
Outline: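 Aedes aegypti larvae (about 1 day old) in liver-powder water were added to plates dispensed from DMSO master plates (4000 ppm stock) diluted with 90:10 water/acetone; six replicate plates per master. Lidded plates were held at room temperature for 3 days, then each well was scored for mortality.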

[4] = Beet Armyworm, 128-well diet tray assay, read-out: BAW rating
[5] = Cabbage Looper, 128-well diet tray assay, read-out: CL rating
[6] = Species BAW (Beet Armyworm), read-out: BAW (Biological Results, rating)
[7] = Species CL (Cabbage Looper), read-out: CL (Biological Results, rating)

O=C(Nc1cc2ocnc2cc1F)c1cc(NC(=O)C2C(c3cc(Cl)cc(Cl)c3)C2(Cl)Cl)ccc1Cl (stereo not drawn) [F453, 2-Chloro-5-(trans)-2,2-dichloro-3-(3,5-dichlorophenyl)cyclopropane-1-carboxamido)-N-(5-fluorobenzo[d]oxazol-6-yl)benzamide]
pest or weed control at 50 µg/cm2 [1, 4]: 50 to 100% | pest or weed control at 50 µg/cm2 [2, 5]: 50 to 100% | YFM rating [3]: A (80-100)

Nc1ccc(F)cc1NC(=O)c1cc(NC(=O)[C@H]2[C@H](c3cc(Cl)c(Cl)c(Cl)c3)C2(Cl)Cl)ccc1Cl [F405, N-(2-Amino-5-fluorophenyl)-2-chloro-5-((1R,3R)-2,2-dichloro-3-(3,4,5-trichlorophenyl)cyclopropane-1-carboxamido)benzamide]
pest or weed control at 50 µg/cm2 [1, 4]: 50 to 100% | pest or weed control at 50 µg/cm2 [2, 5]: 50 to 100% | YFM rating [3]: A (80-100)

Nc1cc(F)ccc1NC(=O)c1cc(NC(=O)[C@H]2[C@H](c3ccc(F)c(Cl)c3)C2(Cl)Cl)ccc1Cl [F578, N-(2-Amino-4-fluorophenyl)-2-chloro-5-((1R,3R)-2,2-dichloro-3-(3-chloro-4-fluorophenyl)cyclopropane-1-carboxamido)benzamide]
pest or weed control at 50 µg/cm2 [1, 4]: 50 to 100% | pest or weed control at 50 µg/cm2 [2, 5]: 50 to 100% | YFM rating [3]: A (80-100)

O=C(Nc1ccc2cc[nH]c2n1)c1cc(NC(=O)C2C(c3cc(Cl)cc(Cl)c3)C2(Cl)Cl)ccc1Cl (stereo not drawn) [F178, 2-Chloro-5-(trans)-2,2-dichloro-3-(3,5-dichlorophenyl)cyclopropane-1-carboxamido)-N-(1H-pyrrolo[2,3-b]pyridin-6-yl)benzamide]
pest or weed control at 50 µg/cm2 [1, 6]: 50 to 100% | pest or weed control at 50 µg/cm2 [2, 7]: 50 to 100% | YFM (Biological Results, rating) [3]: B (More than 0-Less than 80)

O=C(Nc1cccc(I)c1)c1cc(NC(=O)[C@H]2[C@H](c3cc(Cl)cc(Cl)c3)C2(Cl)Cl)ccc1Cl (relative stereo) [F194, trans-2-Chloro-5-(2,2-dichloro-3-(3,5-dichlorophenyl)cyclopropane-1-carboxamido)-N-(3-iodophenyl)benzamide]
pest or weed control at 50 µg/cm2 [1, 6]: 50 to 100% | pest or weed control at 50 µg/cm2 [2, 7]: 50 to 100% | YFM (Biological Results, rating) [3]: B (More than 0-Less than 80)

CNc1ccc(NC(=O)c2cc(NC(=O)[C@H]3[C@H](c4cc(Cl)cc(Cl)c4)C3(Cl)Cl)ccc2Cl)cc1 (relative stereo) [PF22, trans-2-Chloro-5-(2,2-dichloro-3-(3,5-dichlorophenyl)cyclopropane-1-carboxamido)-N-(4-(methylamino)phenyl)benzamide hydrochloride]
pest or weed control at 50 µg/cm2 [1, 4]: 50 to 100% | pest or weed control at 50 µg/cm2 [2, 5]: 50 to 100% | YFM rating [3]: A (80-100)

O=C(Nc1cc(Cl)ccn1)c1cc(NC(=O)[C@H]2[C@H](c3cc(Cl)cc(Cl)c3)C2(Cl)Cl)ccc1Cl (relative stereo) [PF140, trans-2-Chloro-N-(4-chloropyridin-2-yl)-5-(2,2-dichloro-3-(3,5-dichlorophenyl)cyclopropane-1-carboxamido)benzamide]
pest or weed control at 50 µg/cm2 [1, 4]: 50 to 100% | pest or weed control at 50 µg/cm2 [2, 5]: 50 to 100% | YFM rating [3]: A (80-100)

Cc1cc(NC(=O)c2cc(NC(=O)[C@H]3[C@H](c4cc(Cl)cc(Cl)c4)C3(Cl)Cl)ccc2Cl)ncc1F (relative stereo) [F297, trans-2-Chloro-5-(2,2-dichloro-3-(3,5-dichlorophenyl)cyclopropane-1-carboxamido)-N-(5-fluoro-4-methylpyridin-2-yl)benzamide]
pest or weed control at 50 µg/cm2 [1, 6]: 50 to 100% | pest or weed control at 50 µg/cm2 [2, 7]: 50 to 100% | YFM (Biological Results, rating) [3]: A (80-100)

Nc1c(F)cc(NC(=O)c2cc(NC(=O)[C@H]3[C@H](c4ccc(Cl)c(Cl)c4)C3(Cl)Cl)ccc2Cl)cc1F [F379, N-(4-Amino-3,5-difluorophenyl)-2-chloro-5-((1R,3R)-2,2-dichloro-3-(3,4-dichlorophenyl)cyclopropane-1-carboxamido)benzamide]
pest or weed control at 50 µg/cm2 [1, 4]: 50 to 100% | pest or weed control at 50 µg/cm2 [2, 5]: 50 to 100% | YFM rating [3]: A (80-100)

Cn1nc(NC(=O)c2cc(NC(=O)[C@H]3[C@H](c4cc(Cl)cc(Cl)c4)C3(Cl)Cl)ccc2Cl)c2cc(C(F)(F)F)ccc21 (relative stereo) [F460, 2-Chloro-5-(trans)-(2,2-dichloro-3-(3,5-dichlorophenyl)cyclopropane-1-carboxamido)-N-(1-methyl-5-(trifluoromethyl)-1H-indazol-3-yl)benzamide]
pest or weed control at 50 µg/cm2 [1, 4]: 50 to 100% | pest or weed control at 50 µg/cm2 [2, 5]: 50 to 100% | YFM rating [3]: A (80-100)

N#Cc1cc(F)ccc1NC(=O)c1cccc(NC(=O)[C@H]2[C@H](c3cc(Cl)c(Cl)c(Cl)c3)C2(Cl)Cl)c1 (relative stereo) [F267, trans-N-(2-cyano-4-fluorophenyl)-3-(2,2-dichloro-3-(3,4,5-trichlorophenyl)cyclopropane-1-carboxamido)benzamide]
pest or weed control at 50 µg/cm2 [1, 6]: 50 to 100% | pest or weed control at 50 µg/cm2 [2, 7]: 50 to 100% | YFM (Biological Results, rating) [3]: B (More than 0-Less than 80)

C=Cc1c(F)cc([C@H]2[C@H](C(=O)Nc3ccc(Cl)c(C(=O)Nc4ccc(F)cc4F)c3)C2(Cl)Cl)cc1F (relative stereo) [F566, 2-Chloro-5-(trans-2,2-dichloro-3-(3,5-difluoro-4-vinylphenyl)cyclopropane-1-carboxamido)-N-(2,4-difluorophenyl)benzamide]
pest or weed control at 50 µg/cm2 [1, 4]: 50 to 100% | pest or weed control at 50 µg/cm2 [2, 5]: 50 to 100% | YFM rating [3]: A (80-100)

CNc1ccc(NC(=O)c2cc(NC(=O)[C@H]3[C@H](c4cc(Cl)cc(Cl)c4)C3(Cl)Cl)ccc2Cl)c(C)c1 (relative stereo) [F196, trans-2-Chloro-5-(2,2-dichloro-3-(3,5-dichlorophenyl)cyclopropane-1-carboxamido)-N-(2-methyl-4-(methylamino)phenyl)benzamide]
pest or weed control at 50 µg/cm2 [1, 6]: 50 to 100% | pest or weed control at 50 µg/cm2 [2, 7]: 50 to 100% | YFM (Biological Results, rating) [3]: A (80-100)

CC(=O)N(C(C)=O)c1ccc(NC(=O)c2cc(NC(=O)[C@H]3[C@H](c4cc(Cl)cc(Cl)c4)C3(Cl)Cl)ccc2Cl)c(C#N)c1 (relative stereo) [F469, trans-N-(4-(N-acetylacetamido)-2-cyanophenyl)-2-chloro-5-(2,2-dichloro-3-(3,5-dichlorophenyl)cyclopropane-1-carboxamido)benzamide]
pest or weed control at 50 µg/cm2 [1, 4]: 50 to 100% | pest or weed control at 50 µg/cm2 [2, 5]: 50 to 100% | YFM rating [3]: A (80-100)

O=C(Nc1ccc(F)cc1[N+](=O)[O-])c1cc(NC(=O)[C@H]2[C@H](c3cc(Cl)c(Cl)c(Cl)c3)C2(Cl)Cl)ccc1Cl [F556, 2-Chloro-5-((1R,3R)-2,2-dichloro-3-(3,4,5-trichlorophenyl)cyclopropane-1-carboxamido)-N-(4-fluoro-2-nitrophenyl)benzamide]
pest or weed control at 50 µg/cm2 [1, 4]: 50 to 100% | pest or weed control at 50 µg/cm2 [2, 5]: 50 to 100% | YFM rating [3]: A (80-100)

O=C(Nc1ccc(F)cc1F)c1cc(NC(=O)C2C(c3ccc(Cl)c(F)c3)C2(Cl)Cl)ccc1Cl (stereo not drawn) [PF36, 2-Chloro-5-(trans)-2,2-dichloro-3-(4-chloro-3-fluorophenyl)cyclopropane-1-carboxamido)-N-(2,4-difluorophenyl)benzamide]
pest or weed control at 50 µg/cm2 [1, 4]: 50 to 100% | pest or weed control at 50 µg/cm2 [2, 5]: 50 to 100% | YFM rating [3]: A (80-100)

O=C(Nc1nc(-c2cccs2)cs1)c1cc(NC(=O)[C@H]2[C@H](c3cc(Cl)cc(Cl)c3)C2(Cl)Cl)ccc1Cl (relative stereo) [PF135, trans-2-Chloro-5-(2,2-dichloro-3-(3,5-dichlorophenyl)cyclopropane-1-carboxamido)-N-(4-(thiophen-2-yl)thiazol-2-yl)benzamide]
pest or weed control at 50 µg/cm2 [1, 4]: 50 to 100% | pest or weed control at 50 µg/cm2 [2, 5]: 50 to 100% | YFM rating [3]: A (80-100)

O=C(Nc1ccc(OCC(F)(F)F)cc1)c1cc(NC(=O)[C@H]2[C@H](c3cc(Cl)cc(Cl)c3)C2(Cl)Cl)ccc1Cl (relative stereo) [PF62, trans-2-Chloro-5-(2,2-dichloro-3-(3,5-dichlorophenyl)cyclopropane-1-carboxamido)-N-(4-(2,2,2-trifluoroethoxy)phenyl)benzamide]
pest or weed control at 50 µg/cm2 [1, 4]: 50 to 100% | pest or weed control at 50 µg/cm2 [2, 5]: 50 to 100% | YFM rating [3]: A (80-100)

O=C(Nc1ccc(F)cc1)c1cc(NC(=O)[C@H]2[C@H](c3ccc(Cl)c(Cl)c3)C2(Cl)Cl)ccc1Cl [F209, 2-Chloro-5-((1R,3R)-2,2-dichloro-3-(3,4-dichlorophenyl)cyclopropane-1-carboxamido)-N-(4-fluorophenyl)benzamide]
pest or weed control at 50 µg/cm2 [1, 6]: 50 to 100% | pest or weed control at 50 µg/cm2 [2, 7]: 50 to 100% | YFM (Biological Results, rating) [3]: A (80-100)

O=C(Nc1nnc(Br)s1)c1cc(NC(=O)C2C(c3cc(Cl)cc(Cl)c3)C2(Cl)Cl)ccc1Cl (stereo not drawn) [PF133, trans-N-(5-bromo-1,3,4-thiadiazol-2-yl-2-chloro-5-(2,2-dichloro-3-(3,5-dichlorophenyl)cyclopropane-1-carboxamido)benzamide]
pest or weed control at 50 µg/cm2 [1, 4]: 50 to 100% | pest or weed control at 50 µg/cm2 [2, 5]: 50 to 100% | YFM rating [3]: A (80-100)

CN(C(=O)c1cc(NC(=O)[C@H]2[C@H](c3cccc(C(F)(F)F)c3)C2(Cl)Cl)ccc1Cl)c1ccc(F)cc1 (relative stereo) [F57, trans-2-Chloro-5-(2,2-dichloro-3-(3-(trifluoromethyl)phenyl)cyclopropane-1-carboxamido)-N-(4-fluorophenyl)-N-methylbenzamide]
pest or weed control at 50 µg/cm2 [1, 6]: 50 to 100% | pest or weed control at 50 µg/cm2 [2, 7]: 50 to 100% | YFM (Biological Results, rating) [3]: B (More than 0-Less than 80)
